In patent publication US6380218B1, “Nicotinamide derivatives” (Pfizer Inc, priority 1997, dated 2002):

SMILES | melting point
CC(C)(C)c1cc(CNC(=O)c2cccnc2Oc2cccnc2)cc(C(C)(C)C)c1O [Example 34, N-(3,5-Di-tert-butyl-4-hydroxy-benzyl)-2-(pyridin-3-yloxy)-nicotinamide] | 42 to 44 °C
Cc1ccsc1CNC(=O)c1cccnc1Oc1cccnc1 [Example 20, N-(3-Methyl-thiophen-2-ylmethyl)-2-(pyridin-3-yloxy)-nicotinamide] | 89 to 91 °C
CC[C@@H](C)NC(=O)c1cccnc1Oc1cccnc1 [Example 177, (R)-N-sec-Butyl-2-(pyridin-3-yloxy)-nicotinamide] | 55 to 56 °C
CCc1n[nH]c2ccc(C(NC(=O)c3cccnc3Oc3cccc(C#N)c3)C3CCCCC3)cc12 (centres unmarked) [Example 117, 2-(3-Cyano-phenoxy)-N-(-cyclohexyl-3-ethyl-1H-indazol-5-ylmethyl)-nicotinamide] | 56 to 58 °C
CC(=O)c1ccc(CNC(=O)c2cccnc2Oc2cccnc2)s1 [Example 159, N-(5-Acetyl-thiophen-2-ylmethyl)-2-(pyridin-3-yloxy)-nicotinamide] | 201 to 203 °C
Cc1ccc(C(C)NC(=O)c2cccnc2Oc2cccnc2)s1 (centres unmarked) [Example 17, N-[1-(5-Methyl-thiophen-2-yl)-ethyl]-2-(pyridin-3-yloxy)-nicotinamide] | 162 to 164 °C
OC(CCc1c(F)cc(F)cc1F)c1cccnc1Oc1ccc(F)cc1 (centres unmarked) [Example 274, 1-[2-(4-Fluoro-phenoxy)-pyridin-3-yl]-3-(2,4,6-trifluoro-phenyl)-propan-1-ol] | 90 to 91 °C
CC(=O)c1cccc(Oc2ncccc2C(=O)NCc2ccc(C(C)(C)O)cc2Cl)c1 [Example 235, 2-(3-Acetyl-phenoxy)-N-[2-chloro-4-(1-hydroxy-1-methyl-ethyl)-benzyl]-nicotinamide] | 102 to 104 °C
CC(=O)c1cccc(Oc2ncccc2C(=O)NCc2ccc(C(C)(C)O)cc2F)c1 [Example 237, 2-(3-Acetyl-phenoxy)-N-[2-fluoro-4-(1-hydroxy-1-methyl-ethyl)-benzyl]nicotinamide] | 68 to 70 °C
O=C(NCc1cc2ccccc2s1)c1cccnc1Oc1cccnc1 [Example 22, N-Benzo[b]thiophen-2-ylmethyl-2-(pyridin-3-yloxy)-nicotinamide] | 93 to 95 °C
O=C(CCc1ccccc1)c1cccnc1Oc1cccnc1 [Example 257, 3-Phenyl-1-[2-(pyridin-3-yloxy)-pyridin-3-yl]-propan-1-one] | 45 to 46 °C
Cc1noc2c(Oc3ncccc3C(=O)NCC3CCC(C(C)(C)O)CC3)cccc12 (centres unmarked) [Example 317, N-(4-(1-Hydroxy-1-methyl-ethyl)-cyclohexylmethyl)-2-(3-methyl-benzo(d)-isoxazol-7-yloxy)-nicotinamide] | 170 to 172 °C
O=C(Cc1ccccc1Cl)Nc1cccnc1Oc1cccnc1 [Example 185, 2-(2-Chloro-phenyl)-N-[2-(pyridin-3-yloxy)-pyridin-3-yl]-acetamide] | 137 to 139 °C
CCCCNC(=O)c1cccnc1Oc1cccnc1 [Example 174, N-Butyl-2-(pyridin-3-yloxy)-nicotinamide] | 55 to 56 °C
O=C1Cc2cc(CNC(=O)c3cccnc3Oc3cccc([N+](=O)[O-])c3)ccc2N1 [Example 106, 2-(3-Nitro-phenoxy)-N-(2-oxo-2,3-dihydro-1H-indol-5-ylmethyl)-nicotinamide] | 190 to 192 °C
Cc1ccc(CNC(=O)c2cccnc2Oc2cncc(Cl)c2)s1 [Example 52, 2-(5-Chloro-pyridin-3-yloxy)-N-(5-methyl-thiophen-2-ylmethyl)-nicotinamide] | 81 to 83 °C
CC(NC(=O)c1cccnc1Oc1cccnc1)c1cccs1 (centres unmarked) [Example 45, 2-(Pyridin-3-yloxy)-N-(1-thiophen-2yl-ethyl)-nicotinamide] | 90 to 92 °C
CC(C)(O)c1ccc(CNC(=O)c2cccnc2Oc2ccc(F)c(C#N)c2)c(Cl)c1 [Example 244, N-[2-Chloro-4-(1-hydroxy-1-methyl-ethyl)-benzyl]-2-(3-cyano-4-fluoro-phenoxy)-nicotinamide] | 151 to 153 °C
Cc1ccc(CNC(=O)c2cccnc2Oc2cncc(Cl)c2)o1 [Example 53, 2-(5-Chloro-pyridin-3-yloxy)-N-(5-methyl-furan-2-ylmethyl)-nicotinamide] | 103 to 105 °C

The next lines start with the values.

melting point | SMILES
101 to 103 °C | Nc1cccc(Oc2ncccc2C(=O)NCc2ccccc2Cl)c1 [Example 144, 2-(3-Amino-phenoxy)-N-(2-chloro-benzyl)-nicotinamide]
91 to 93 °C | Cc1ccc(CNC(=O)c2cccnc2Oc2cccnc2)cc1 [Example 13, N-(4-Methyl-benzyl)-2-(pyridin-3-yloxy)-nicotinamide]
57 to 59 °C | CC(C)(O)c1ccc(CNC(=O)c2cccnc2Oc2cccc(Cl)c2)cc1 [Example 187, 2-(3-Chloro-phenoxy)-N-[4-(1-hydroxy-1-methyl-ethyl)-benzyl]-nicotinamide]
93 to 94 °C | CC(C)(O)c1ccc(CNC(=O)c2cccnc2Oc2ccc(F)cc2)c(F)c1 [Example 328, N-[2-Fluoro-4-(1-hydroxy-1-methyl-ethyl)-benzyl]-2-(4-fluoro-phenoxy)-nicotinamide]
135 to 137 °C | CC(C)(O)c1ccc(CC(=O)Nc2cccnc2Oc2ccc(F)cc2)cc1 [Example 203, N-[2-(4-Fluoro-phenoxy)-pyridin-3-yl]-2-[4-(1-hydroxy-1-methyl-ethyl)-phenyl]-acetamide]
52 to 54 °C | CC(=O)c1cccc(Oc2ncccc2C(=O)NCc2ccc(C(C)(C)O)cc2)c1 [Example 221, 2-(3-Acetyl-phenoxy)-N-[4-(1-hydroxy-1-methyl-ethyl)-benzyl]-nicotinamide]
51 to 53 °C | CC(C)(O)c1ccc(CNC(=O)c2cccnc2Oc2cccc(S(C)(=O)=O)c2)cc1 [Example 207, N-[4-(1-Hydroxy-1-methyl-ethyl)-benzyl]-2-(3-methanesulfonyl-phenoxy)-nicotinamide]
196 to 197 °C | NS(=O)(=O)c1ccc(CNC(=O)c2cccnc2Oc2cccnc2)cc1 [Example 178, 2-(Pyridin-3-yloxy)-N-(4-sulfamoyl-benzyl)-nicotinamide]
157 to 159 °C | O=C1COC(CNC(=O)c2cccnc2Oc2ccc(F)cc2)CN1 (centres unmarked) [Example 216, 2-(4-Fluoro-phenoxy)-N-(5-oxo-morpholin-2-ylmethyl)-nicotinamide]
94 to 95 °C | O=C(CCc1ccc(C(F)(F)F)cc1)c1cccnc1Oc1ccc(F)cc1 [Example 252, 1-[2-(4-Fluoro-phenoxy)-pyridin-3-yl]-3-(4-trifluoromethyl-phenyl)-propan-1-one]
116 to 118 °C | O=C(NCc1ccc(C2(O)CCC2)cc1)c1cccnc1Oc1cccnc1 [Example 42, N-[4-(1-Hydroxy-cyclobutyl)-benzyl]-2-(pyridin-3-yloxy)-nicotinamide]
71 to 73 °C | O=C(NCc1ccco1)c1cccnc1Oc1ccc(F)cc1 [Example 2, 2-(4-Fluoro-phenoxy)-N-furan-2-ylmethyl-nicotinamide]
145 to 147 °C | CC(C)(O)c1ccc(CNC(=O)c2cccnc2Oc2cccc3c2CCC3=O)cc1 [Example 284, N-[4-(1-Hydroxy-1-methyl-ethyl)-benzyl]-2-(1-oxo-indan-4-yloxy)-nicotinamide]
118 to 120 °C | CC(=O)c1ccc(CC(=O)Nc2cccnc2Oc2ccc(F)cc2)cc1 [Example 137, 2-(4-Acetyl-phenyl)-N-[2-(4-fluoro-phenoxy)-pyridin-3-yl]-acetamide]
155 to 157 °C | O=C(NCc1ccc([N+](=O)[O-])cc1)c1cccnc1Oc1ccc(F)cc1 [Example 72, 2-(4-Fluoro-phenoxy)-N-(4-nitro-benzyl)-nicotinamide]
185 to 187 °C | O=C(NCc1ccc(O)cc1)c1cccnc1Oc1ccc(F)cc1 [Example 103, 2-(4-Fluoro-phenoxy)-N-(4-hydroxy-benzyl)-nicotinamide]
85 to 87 °C | CC(C)(O)c1cc(Cl)c(CNC(=O)c2cccnc2Oc2ccc(F)cc2)s1 [Example 84, N-[3-Chloro-5-(1-hydroxy-1-methyl-ethyl)-thiophen-2-ylmethyl]-2-(4-fluoro-phenoxy)-nicotinamide]
156 to 158 °C | O=C(NCc1ccc(O)cc1)c1cccnc1Oc1cccnc1 [Example 104, N-(4-Hydroxy-benzyl)-2-(pyridin-3yloxy)-nicotinamide]
225 to 226 °C | NS(=O)(=O)N1CCC(CNC(=O)c2cccnc2Oc2ccc(F)cc2)CC1 [Example 194, 2-(4-Fluoro-phenoxy)-N-(1-sulfamoyl-piperidin-4-ylmethyl)-nicotinamide]
110 to 112 °C | CC(=O)c1cc(Cl)cc(Oc2ncccc2C(=O)NCc2ccc(C(C)(C)O)cc2)c1 [Example 305, 2-(3-Acetyl-5-chloro-phenoxy)-N-(4-(1-Hydroxy-1-methyl-ethyl)-benzyl)-nicotinamide]
92 to 94 °C | CC(C)(O)c1ccc(CNC(=O)c2cccnc2Oc2ccc3ncoc3c2)cc1 [Example 302, 2-(Benzooxazol-6-yloxy)-N-(4-(1-hydroxy-1-methyl-ethyl)-benzyl)-nicotinamide]
129 to 131 °C | O=C(NCc1ccc(F)cc1)c1cccnc1Oc1cccnc1 [Example 28, N-(4-Fluoro-benzyl]-2-(pyridin-3-yloxy)-nicotinamide]
78 to 80 °C | CC(NC(=O)c1cccnc1Oc1ccc(F)cc1)c1ccc(Cl)s1 (single isomer, unassigned; (+)) [Example 141, (+)-N-[1-(5-Chloro-thiophen-2-yl)-ethyl]-2-(4-fluoro-phenoxy)-nicotinamide]
82 to 83 °C | O=C(CCc1ccccc1)c1cccnc1Oc1ccc(F)cc1 [Example 256, 1-[2-(4-Fluorophenoxy)-3-pyridinyl]-3-phenyl-1-propanone]
102 to 104 °C | CC(C)(O)c1ccc(CNC(=O)c2cccnc2Oc2ccc(F)cc2)c(Cl)c1 [Example 86, N-[2-Chloro-4-(1-hydroxy-1-methyl-ethyl)-benzyl]-2-(4-fluoro-phenoxy)-nicotinamide]
